In a melting point compilation (Tetko et al.; mined from patent text by program, amines drawn as free bases though some values may be those of a salt):

Row | Structure (SMILES) | melting point [°C]
1 | N#Cc1cccc(-c2nc(-c3cccnc3)no2)n1 | 201 to 203
2 | CCOC(=O)COC(=O)c1cc(NC(=O)OCc2ccccc2)ccc1OCC(=O)OCC | 77 to 78
3 | COC(=O)C1=C(C)Nc2nc(N)nc(N)c2C1c1ccccc1F (stereo not drawn) | 208
4 | Cc1nnc(-c2ccc3occ(-c4ccc(OC(F)(F)F)cc4)c3c2)o1 | 129 to 130
5 | O=C1CC2CC(C1)CN(Cc1ccccc1)C2 | 89
6 | CN(C)CCNc1ccc(O)c2c1C(=O)c1c(O)ccc(O)c1C2=O | 171 to 172
7 | OC1CC(CN2CCC(c3ccccc3)CC2)CCc2ccccc21 (stereo not drawn) | 48 to 50
8 | O=C1CC(c2ccc(Oc3ccc(C(F)(F)F)cc3)cc2)Cc2ccccc21 (stereo not drawn) | 136 to 137
9 | COC(=O)CC[C@H]1CC[C@@H](n2c(C)nn(-c3ccc(C#N)cc3)c2=O)CC1 | 92 to 96
10 | CCOC(=O)c1c[nH]c2c(=O)ccc(Cl)cc2c1=O | 138 to 140
11 | CS(=O)(=O)c1ccc(Br)cc1[N+](=O)[O-] | 175 to 177
12 | CC(=O)NC1CCN(c2cccc(C)n2)CC1 | 145 to 147
13 | CC(C)OC(=O)c1cc(-n2c(=O)c(F)c(CF)n(C)c2=O)c(F)cc1Cl | 85 to 89
14 | C[C@]1(COC(=O)N2CCC(Oc3ccc(C(F)(F)F)cc3)CC2)Cn2cc([N+](=O)[O-])nc2O1 | 165 to 166
15 | N#Cc1ccc(OCCCc2cn(C(c3ccccc3)(c3ccccc3)c3ccccc3)cn2)cc1 | 187 to 188
16 | O=S(c1ccc(C=Cc2nc(CCl)cs2)cc1)C(F)(F)F (stereo not drawn) | 98 to 99
17 | CCCCCC1=C(CCCCC)CC(CNC(=O)Nc2c(C(C)C)cccc2C(C)C)SC1 (stereo not drawn) | 65 to 67
18 | CONS(=O)(=O)c1cccc(C(F)(F)F)c1 | 78 to 81
19 | COc1cccc(-c2ccc(NC(=O)OC(C)(C)C)c([N+](=O)[O-])c2)c1 | 104 to 107
20 | C[Si](C)(O[Si](C)(C)c1cccnc1F)c1cccnc1F | 41 to 42
21 | COC(=O)c1c(C(N)=O)[nH]c(-c2ccccc2)c1N | 177 to 179
22 | CCOC(=O)CCCOc1ccc2c(c1)CN1CC(=O)NC1=N2 | 243 to 244
23 | CCCCCCCCCc1ccc(-c2nc(C)c(C(C)=NNC(=N)N)s2)cc1 | 203 to 206
24 | CCNc1cc(NS(=O)(=O)c2ccc(N)cc2)nc(NC(C)C)n1 | 266 to 267
25 | C#CCON=C(C(=O)O)c1nc(NC(=O)C(F)(F)F)sc1Cl | 178 to 180
26 | O=C(C(=Cc1ccc([N+](=O)[O-])cc1)c1ccccc1)c1ccc(O)cc1 | 153 to 157
27 | COC(C)=CC(=O)Nc1cccc([N+](=O)[O-])c1 | 187

Row | Structure (SMILES) | melting point [°C]
28 | Cc1ccc2c(-n3ccnc3)c(F)ccc2n1 | 159 to 161
29 | CCc1nc(Cl)cc(NC)n1 | 80 to 81
30 | Cc1ccc(Oc2ccc(C=O)cc2)cn1 | 45 to 46
31 | COC(=O)CCc1cc(C)c(OP(Oc2c(C)cc(CCC(=O)OC)cc2C(C)(C)C)Oc2c(C)cc(CCC(=O)OC)cc2C(C)(C)C)c(C(C)(C)C)c1 | 113 to 114
32 | C[C@H](Cc1ccc(O)c(O)c1)NC(=O)OC(C)(C)C | 116 to 118
33 | Nc1cccc(S(=O)(=O)Nc2ccccc2NNC=O)c1 | 120
34 | COc1cccc(-c2cc3cnc(N)nc3nc2N)c1 | 284 to 286
35 | CC(C)(C)COS(=O)(=O)c1ccc(Oc2c(Cl)cccc2[N+](=O)[O-])cc1 | 111 to 112
36 | COc1cc2c(c(OC)c1OC)-c1ccc(O)cc1[C@@H](NC(C)=O)CC2 | 157
37 | C=Cc1cccc2ccc(O)nc12 | 96
38 | O=S1NC(Cc2ccc3c(Cl)cccc3c2)=NO1 (stereo not drawn) | 164 to 165
39 | CC(=O)c1ccc(Nc2cccc(Br)c2)c([N+](=O)[O-])c1 | 142 to 144
40 | CC(Br)c1ccc2onc(-c3ccc(Cl)cc3)c2c1 (stereo not drawn) | 111 to 116
41 | Cc1nc([C@@H](Cc2c[nH]c3ccccc23)NC(=O)OC(C)(C)C)oc1C | 138 to 140
42 | Cc1ccc(CCCO)c(NCc2ccc3nc(NCCCN4CCOCC4)n(Cc4nc(C)c(C)nc4C)c3c2)c1 | 120
43 | Cc1[nH]cc(C(N)=O)c(=O)c1I | 296 to 298
44 | C[C@H]1CN(c2cc3c(cc2F)c(=O)c(C(=O)O)cn3C2CC2)C[C@H]1N (relative stereo) | 268 to 270
45 | CCN(CC)c1ccc(/C=C/C(=O)CC(=O)/C=C/c2ccc(O)c(OC)c2)c(O)c1 | 89 to 92
46 | Cn1cc(Br)cc1C=O | 123 to 124
47 | CCC=Cc1nc2ccccc2n1Cc1ccc(C#N)cc1 | 125
48 | O=[N+]([O-])c1nccn1C1CCCC1O (stereo not drawn) | 109
49 | Cn1c(CC#N)cc(Cl)c1C(=O)c1ccc(Cl)cc1 | 139 to 142
50 | C[C@H](Nc1c(-c2c(F)cc(F)cc2F)c(Br)nc2ncnn12)C(F)(F)F | 95 to 97
51 | COC(=O)c1sccc1COC(C)=O | 42 to 43
52 | COc1ccc(C2(C#Cc3cccc(-c4nnc(C)o4)c3)CCC(=O)CC2)cc1OC1CCCC1 | 139 to 141
53 | CCCC#Cc1ccnc2[nH]cc(-c3ccnc(N)n3)c12 | > 210

Results, then the molecule that gave them:

Row | melting point [°C] | Structure (SMILES)
54 | 162 | O=C(CN1C(=O)c2ccccc2C1=O)c1ncc(C(F)(F)F)cc1Cl
55 | 226 to 229 | CCNCC1CN(c2c(F)cc3c(=O)c(C(=O)O)cn(-c4ccc(F)cc4F)c3c2F)CCO1 (stereo not drawn)
56 | 187 to 188 | COc1cc(COc2nn(-c3ccccc3)cc2/C=C/C(N)=O)ccc1OCc1nc(-c2ccco2)oc1C
57 | 172 | COCCn1nc(-c2sc(C(=O)NC(C)C)nc2-c2ccccc2)ccc1=O
58 | 48 | COC(=O)C(CCSC)NC(=O)c1ccc(NCC2CC(O[Si](C)(C)C(C)(C)C)CN2C(=O)OC(C)(C)C)cc1-c1ccccc1 (stereo not drawn)
59 | 104 to 106 | COc1ccccc1NC(=O)c1ccc(CO)cc1
60 | 223 to 225 | Cc1c(-c2ccccc2)sc(N2C(=O)c3ccccc3C2=O)c1C(=O)c1ccc(Cl)cc1
61 | 154 to 155 | Cn1cccc1-c1cc(OC(F)F)n(-c2ccc(NC(=O)c3ccncc3F)cc2)n1
62 | 84 to 85 | O=Cc1cc2c3ccccc3c3ccccc3c2o1
63 | 244 to 248 | O=C(O)CCc1ccc(C(=O)c2c(-c3ccc(O)cc3)sc3cc(O)ccc23)cc1
64 | 105 to 107 | CCOCn1c(Sc2ccc(Cl)c(Cl)c2)c(Br)c(C#N)c1-c1ccc(Cl)cc1
65 | 230 to 245 | O=C(NCc1ccc(Cl)cc1)c1cc2c(O)c(C(=O)NCc3ccc(Cl)cc3)cnc2o1
66 | 201 to 202 | CC(C)n1nc(-c2nc(C#N)c(C#N)nc2-c2ccccc2)ccc1=O
67 | 220 | CCn1cc(C(=O)O)c(=O)c2cc(F)c(N3CCNC(c4cc[nH]c4)C3)cc21 (stereo not drawn)
68 | 105 to 106 | O=C1c2ccccc2COc2cc(Cl)ccc21
69 | 215 to 216 | NC(=O)c1c(C(=O)O)cnn1-c1cccc(F)c1
70 | 182 | Cc1ccccc1NC(=O)c1c(Cl)cccc1Cl
71 | 120 to 123 | CN1CCC(=C2c3ccc(F)cc3Sc3ccc(F)cc32)CC1
72 | 68 to 68.5 | OCC1CN(Cc2ccccc2)CC=C1c1ccc(F)cc1 (single isomer, unassigned; (+))
73 | 77 to 80 | Cc1ccc(S(=O)(=O)Oc2cc(Cl)c(C=O)c(Cl)c2)cc1
74 | 263 to 265 | Cc1c(-c2ccccc2)[nH]c(=O)n1C1CCN(Cc2cccc(Br)c2)CC1
75 | 150 to 151 | O=[N+]([O-])c1ccccc1CN1CCC(c2cc(-c3ccc(Cl)cc3)[nH]n2)CC1
76 | 168 to 170 | CCC1(CCCCN2CCN(c3ccccn3)CC2)C(=O)Nc2ccc(C)cc21 (stereo not drawn)

Row | melting point [°C] | Structure (SMILES)
77 | 202 to 205 | O=C1Nc2ccccc2SC[C@@H]1N1C(=O)c2ccccc2C1=O
78 | 149 | CC(C)(Sc1ccc2c(-c3ccccc3F)noc2c1Cl)C(=O)O
79 | 64 to 66 | O=C(Cc1ccc(F)cc1)N1C(=O)OC[C@@H]1Cc1ccccc1
80 | 157 to 160 | O=c1c2c(oc3c1nnn3Cc1ccccc1)CCS2
81 | 272 | CC(C)(CO)NS(=O)(=O)c1cc(NC(=O)c2cnn3c(C(F)(F)F)cc(-c4ccc(Cl)cc4)nc23)c(Cl)s1
82 | 161 to 162 | CCOC(=O)c1cc(=O)c2c(OCCOc3ccc4c(c3)OCO4)cccc2o1
83 | 164 to 166 | COC(=O)c1ccc2c(c1)CN(S(=O)(=O)c1ccc(C)cc1)C2
84 | 172 | CN1C(=O)CC[C@]2(C)c3ccc(-c4cc(Cl)cc(Cl)c4)cc3CC[C@@H]12
85 | 137 to 140 | O=C(O)c1cc(-c2ccc3c(c2)CCO3)nn(CCCc2ccccc2Cl)c1=O
86 | 320 to 322 | NC(=O)c1ccc(-c2nn(-c3ccc(C(=O)O)cc3)c3ccc([N+](=O)[O-])cc23)cc1
87 | 230 to 231 | O=S1CCc2nc(N3CCN(c4ccccc4)CC3)nc(Nc3cccc(Cl)c3)c21 (stereo not drawn)
88 | 95 to 99 | COc1cc(C(=O)c2c(-c3ccc(OCCN4CCCC4)cc3)sc3ccc(O)cc23)ccc1CN1CCCC1
89 | 110 to 114 | CSCc1cc(=O)c2ccc(OCc3ccccc3)c(C)c2o1
90 | 91 to 96 | COCCN1CCc2ccc(Nc3ncc(Cl)c(Nc4ccc(N5CCOCC5)cc4OCCC#N)n3)cc2CC1
91 | 82.5 to 83 | C=C(c1ccccc1)c1ccc(N2CCCC2)cc1
92 | 260 to 262 | O=C1NCC(c2cn3c4c(cccc24)CCC3)=C1c1c[nH]c2ccccc12
93 | 80 | CCCCOc1cc(/C=C(\OCC)C(=O)O)ccc1OCCc1ccc(OS(=O)(=O)CCCC)c(Cl)c1
94 | 81 to 82 | Cc1oc(-c2ccccc2)nc1COc1cccc(CSc2cccc(CC(=O)O)c2)c1
95 | 215 to 216 | COC(=O)c1cccc2nc(OC)n(Cc3ccc(-c4ccccc4-c4nc(=O)o[nH]4)cc3)c12
96 | 98 to 100 | CC(C#CCOc1cccc(Oc2ccccc2)c1)N(O)C(N)=O (stereo not drawn)
97 | 168 to 170 | CN(C)c1ccc2c(c1)CC(N1CCN(CCN3CCOC3=O)CC1)c1ccccc1S2 (stereo not drawn)
98 | 205 to 207 | CCc1cc(NC(=O)N2CCc3cc(OC)c(C(F)(F)F)cc32)cc(-c2cccnc2)c1
